From US8309721B2, “HSP90 inhibitory carbazole derivatives, compositions containing same and use thereof” (Sanofi, priority 2008, dated 2012)
Structures can show the parent of a compound that is named as a salt.

Key:
Hsp82 = Hsp82 (Saccharomyces cerevisiae, UniProt P02829); experiment: Hsp82/ATPase test (malachite green or PK/LDH coupled method); assay type: biochemical; details: 1 μM Hsp82, 250 μM ATP, 37° C.; read-out: Hsp82 ATPase IC50
Experimental: The biochemical activity of the compounds can in particular be evaluated by means of the “Hsp82/ATPase” test described below: The inorganic phosphate released during the hydrolysis of ATP by the ATPase activity of Hsp82 is quantified by the malachite green method. In the presence of this reagent, formation of the inorganic phosphate-molybdate-malachite green complex, which absorbs at a wavelength of 620 nm, occurs. The products to be evaluated are incubated in a reaction volume of 30 μl, in the presence of 1 μM Hsp82 and of 250 μM of substrate (ATP) in a buffer composed of 50 mM Hepes-NaOH (pH 7.5), 1 mM DTT, 5 mM MgCl2 and 50 mM KCl at 37° C. for 60 min. In parallel, an inorganic phosphate range of between 1 and 40 μM is made up in the same buffer. […] After incubation at ambient temperature for 20 min, the absorbance of the various wells is measured using a microplate reader at 620 nm. The inorganic phosphate concentration of each sample is then calculated from the standard curve. The ATPase activity of Hsp82 is expressed as concentration of inorganic phosphate produced in 60 minutes. The effect of the various products tested is expressed as percentage inhibition of the ATPase activity. The formation of ADP due to the ATPase activity of Hsp82 was used to develop another method for evaluating the enzyme activity of this enzyme by application of an enzymatic coupling system involving pyruvate kinase (PK) and lactate dehydrogenase (LDH). In this kinetic-type spectrophotometric method, PK catalyses the formation of ATP and of pyruvate from phosphoenol pyruvate (PEP) and the ADP produced by Hsp82. The pyruvate formed, which is a substrate for LDH, is subsequently converted to lactate in the presence of NADH. In this case, the decrease in the NADH concentration, measured through the decrease in absorbance at the wavelength of 340 nm, is proportional to the concentration of ADP produced by Hsp82. The products tested are incubated in a reaction volume of 100 μl of buffer composed of 100 mM Hepes-NaOH (pH 7.5), 5 mM MgCl2, 1 mM DTT, 150 mM KCl, 0.3 mM NADH, 2.5 mM PEP and 250 μM ATP. This mixture is preincubated at 37° C. for 30 minutes before the addition of 3.77 units of LDH and 3.77 units of PK. The reaction is initiated by addition of the product to be evaluated, in varying concentrations, and of Hsp82, at the concentration of 1 μM. The enzymatic activity of Hsp82 is then measured continuously, in a microplate reader, at 37° C., at the wavelength of 340 nm. The initial rate of the reaction is obtained by measuring the slope of the tangent to the origin of the curve recorded. The enzymatic activity is expressed in μM of ADP formed per minute. The effect of the various products tested is expressed as percentage inhibition of the ATPase activity according to the codification below: […]

[1] = system: Her2 receptor expression at the surface of SKBr3 cells; experiment: phenotypic SKBr3/HER2 cell test (Her2 surface expression by flow cytometry); assay type: cell-based; details: Homo sapiens, SK-BR-3, 24 h incubation, inhibition of Her2 expression
Summary of the method: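 SKBr3 cells (Her2-overexpressing adenocarcinoma) treated 24 h with compound at varying concentrations, then stained with PE-anti-Her2 antibody 30 min at 4° C; surface Her2 measured by flow cytometry. IC50 from nonlinear fit of % inhibition of Her2 expression versus concentration.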

Chain of Hsp82 (P02829 whole entry): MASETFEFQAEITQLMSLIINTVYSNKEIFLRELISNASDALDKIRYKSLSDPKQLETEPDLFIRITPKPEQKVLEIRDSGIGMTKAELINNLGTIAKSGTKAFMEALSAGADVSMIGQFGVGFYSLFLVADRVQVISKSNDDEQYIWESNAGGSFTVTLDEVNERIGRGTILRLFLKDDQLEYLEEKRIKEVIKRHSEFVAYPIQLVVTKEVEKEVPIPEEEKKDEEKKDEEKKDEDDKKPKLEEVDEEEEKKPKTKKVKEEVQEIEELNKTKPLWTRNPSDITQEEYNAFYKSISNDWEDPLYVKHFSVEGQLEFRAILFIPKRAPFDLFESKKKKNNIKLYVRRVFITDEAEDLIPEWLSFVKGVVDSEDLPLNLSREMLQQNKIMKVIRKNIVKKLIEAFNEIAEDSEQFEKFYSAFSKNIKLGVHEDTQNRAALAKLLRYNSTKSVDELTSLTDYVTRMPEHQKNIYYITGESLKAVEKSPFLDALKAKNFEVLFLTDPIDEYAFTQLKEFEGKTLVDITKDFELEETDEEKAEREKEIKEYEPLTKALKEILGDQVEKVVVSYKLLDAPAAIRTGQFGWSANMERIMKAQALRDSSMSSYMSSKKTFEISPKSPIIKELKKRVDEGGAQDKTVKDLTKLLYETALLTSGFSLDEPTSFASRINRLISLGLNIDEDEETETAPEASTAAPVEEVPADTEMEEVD

Compound | IC50 (Hsp82) [nM] | IC50 [1] [nM]
NCCNc1cc(-n2c3ccccc3c3c(-c4nc5ccc(F)cc5[nH]4)cccc32)ccc1C(N)=O [Example 18, 2-(2-aminoethylamino)-4-[4-(6-fluoro-1H-benzimidazol-2-yl)-9H-carbazol-9-yl]benzamide] | < 1000 | 1000 to 10000
NC(=O)c1ccc(-n2c3ccccc3c3c(-c4nc5ccc(F)cc5[nH]4)cccc32)nc1 [Example 19, 6-[4-(6-fluoro-1H-benzimidazol-2-yl)carbazol-9-yl]nicotinamide] | 1000 to 10000 | 1000 to 10000
CC(C)(C)OC(=O)NCC(=O)O[C@H]1CC[C@H](Nc2cc(-n3c4ccccc4c4c(-c5nc6ccc(F)cc6[nH]5)cccc43)ccc2C(N)=O)CC1 [Example 21, tert-butoxycarbonylaminoacetic acid 4-trans-{2-carbamoyl-5-[4-(6-fluoro-1H-benzimidazol-2-yl)-9H-carbazol-9-yl]phenylamino}cyclohexyl ester] | 1000 to 10000 | < 1000
C[C@H](NC(=O)OC(C)(C)C)C(=O)O[C@H]1CC[C@H](Nc2cc(-n3c4ccccc4c4c(-c5nc6ccc(F)cc6[nH]5)cccc43)ccc2C(N)=O)CC1 [Example 22, 2(S)-tert-butoxycarbonylaminopropionic acid 4-trans-{2-carbamoyl-5-[4-(6-fluoro-1H-benzimidazol-2-yl)-9H-carbazol-9-yl]phenylamino}cyclohexyl ester] | 1000 to 10000 | < 1000
CC(C)(C)OC(=O)NCCC(=O)O[C@H]1CC[C@H](Nc2cc(-n3c4ccccc4c4c(-c5nc6ccc(F)cc6[nH]5)cccc43)ccc2C(N)=O)CC1 [Example 23, 3-tert-butoxycarbonylaminopropionic acid 4-trans-{2-carbamoyl-5-[4-(6-fluoro-1H-benzimidazol-2-yl)-9H-carbazol-9-yl]phenylamino}cyclohexyl ester] | 1000 to 10000 | < 1000
NCCC(=O)O[C@H]1CC[C@H](Nc2cc(-n3c4ccccc4c4c(-c5nc6ccc(F)cc6[nH]5)cccc43)ccc2C(N)=O)CC1 [Example 24, trifluoroacetate of the 4-trans-{2-carbamoyl-5-[4-(6-fluoro-1H-benzimidazol-2-yl)-9H-carbazol-9-yl]phenylamino}cyclohexyl ester of 3-aminopropionic acid] | 1000 to 10000 | < 1000
NC(=O)c1ccc(-n2c3ccccc3c3c(-c4ccc(CO)nc4)cccc32)cc1N[C@H]1CC[C@H](O)CC1 [Example 29, 2-[(4-trans-hydroxycyclohexyl)amino]-4-{4-[6-(hydroxymethyl)pyridin-3-yl]-9H-carbazol-9-yl}benzamide] | < 1000 | < 1000
NC(=O)c1ccc(-n2c3ccccc3c3c(-c4cnc5ccccc5c4)cccc32)cc1 [Example 30, 4-[4-(quinolin-3-yl)-9H-carbazol-9-yl]benzamide] | 1000 to 10000 | 1000 to 10000
NC(=O)c1ccc(-n2c3ccccc3c3c(-c4cnc5ccccc5c4)cccc32)cc1NCCCO [Example 31, 2-(3-hydroxypropyl)amino-4-[4-(quinolin-3-yl)-9H-carbazol-9-yl]benzamide] | < 1000 | < 1000
COCCCNc1cc(-n2c3ccccc3c3c(-c4cnc5ccccc5c4)cccc32)ccc1C(N)=O [Example 33, 2-(3-methoxypropyl)amino-4-[4-(quinolin-3-yl)-9H-carbazol-9-yl]benzamide] | < 1000 | < 1000
NC(=O)CCNc1cc(-n2c3ccccc3c3c(-c4cnc5ccccc5c4)cccc32)ccc1C(N)=O [Example 34, 2-(2-carbamoylethylamino)-4-[4-(quinolin-3-yl)-9H-carbazol-9-yl]benzamide] | < 1000 | < 1000
NC(=O)c1ccc(-n2c3ccccc3c3c(-c4nc5ccc(F)cc5[nH]4)cccc32)cc1NCCO [Example 42, 4-[4-(6-fluoro-1H-benzimidazol-2-yl)-9H-carbazol-9-yl]-2-(2-hydroxyethylamino)benzamide] | < 1000 | < 1000
CCOCCNc1cc(-n2c3ccccc3c3c(-c4nc5ccc(F)cc5[nH]4)cccc32)ccc1C(N)=O [Example 46, 2-(2-ethoxyethylamino)-4-[4-(6-fluoro-1H-benzimidazol-2-yl)-9H-carbazol-9-yl]benzamide] | 1000 to 10000 | < 1000
NC(=O)CCNc1cc(-n2c3ccccc3c3c(-c4nc5ccc(F)cc5[nH]4)cccc32)ccc1C(N)=O [Example 47, 2-(2-carbamoylethylamino)-4-[4-(6-fluoro-1H-benzimidazol-2-yl)-9H-carbazol-9-yl]benzamide] | < 1000 | < 1000
NC(=O)c1ccc(-n2c3ccccc3c3c(-c4nc5ccc(F)cc5[nH]4)cccc32)cc1NCc1ccco1 [Example 48, 4-[4-(6-fluoro-1H-benzimidazol-2-yl)-9H-carbazol-9-yl]-2-[(furan-2-ylmethyl)amino]benzamide] | 1000 to 10000 | < 1000
NC(=O)c1ccc(-n2c3ccccc3c3c(-c4nc5ccc(F)cc5[nH]4)cccc32)cc1NCc1ccoc1 [Example 50, 4-[4-(6-fluoro-1H-benzimidazol-2-yl)-9H-carbazol-9-yl]-2-[(furan-3-ylmethyl)amino]benzamide] | 1000 to 10000 | < 1000

Second part, the compound after the results:

IC50 (Hsp82) [nM] | IC50 [1] [nM] | Compound
< 1000 | < 1000 | NC(=O)c1ccc(-n2c3ccccc3c3c(-c4ccc(N)nc4)cccc32)cc1N[C@H]1CC[C@H](O)CC1 [Example 20, 4-[4-(6-aminopyridin-3-yl)-9H-carbazol-9-yl]-2-[(4-trans-hydroxycyclohexyl)amino]benzamide]
1000 to 10000 | < 1000 | NCC(=O)O[C@H]1CC[C@H](Nc2cc(-n3c4ccccc4c4c(-c5nc6ccc(F)cc6[nH]5)cccc43)ccc2C(N)=O)CC1 [Example 25, trifluoroacetate of the 4-trans-{2-carbamoyl-5-[4-(6-fluoro-1H-benzimidazol-2-yl)-9H-carbazol-9-yl]phenylamino}cyclohexyl ester of aminoacetic acid]
< 1000 | < 1000 | C[C@H](N)C(=O)O[C@H]1CC[C@H](Nc2cc(-n3c4ccccc4c4c(-c5nc6ccc(F)cc6[nH]5)cccc43)ccc2C(N)=O)CC1 [Example 26, trifluoroacetate of the 4-trans-{2-carbamoyl-5-[4-(6-fluoro-1H-benzimidazol-2-yl)-9H-carbazol-9-yl]phenylamino}cyclohexyl ester of 2(S)-aminopropionic acid]
< 1000 | < 1000 | CC(O)CCNc1cc(-n2c3ccccc3c3c(-c4cnc5ccccc5c4)cccc32)ccc1C(N)=O (stereo not drawn) [Example 32, 2-(3-hydroxybutyl)amino-4-[4-(quinolin-3-yl)-9H-carbazol-9-yl]benzamide]
< 1000 | < 1000 | COCCCNc1cc(-n2c3ccccc3c3c(-c4nc5ccc(F)cc5[nH]4)cccc32)ccc1C(N)=O [Example 38, 4-[4-(6-fluoro-1H-benzimidazol-2-yl)-9H-carbazol-9-yl]-2-(3-methoxypropylamino)benzamide]
< 1000 | < 1000 | CN(C)CCNc1cc(-n2c3ccccc3c3c(-c4nc5ccc(F)cc5[nH]4)cccc32)ccc1C(N)=O [Example 43, 2-(2-dimethylaminoethylamino)-4-[4-(6-fluoro-1H-benzimidazol-2-yl)-9H-carbazol-9-yl]benzamide]
1000 to 10000 | < 1000 | CNC(=O)CNc1cc(-n2c3ccccc3c3c(-c4nc5ccc(F)cc5[nH]4)cccc32)ccc1C(N)=O [Example 44, 4-[4-(6-fluoro-1H-benzimidazol-2-yl)-9H-carbazol-9-yl]-2-(methylcarbamoylmethylamino)benzamide]
< 1000 | < 1000 | NC(=O)c1ccc(-n2c3ccccc3c3c(-c4cnc5ccccc5c4)cccc32)cc1NCC[N+]1([O-])CCCC1 [Example 45, 2-[2-(1-oxypyrrolidin-1-yl)ethylamino]-4-[4-(quinolin-3-yl)-9H-carbazol-9-yl]benzamide]
